Test results: PubChem BioAssay (NCI)
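96-well plates; 48 h exposure; 5 concentrations. Endpoints by linear interpolation between flanking doses. Not reached: highest tested concentration assigned. TGI is the concentration that stops growth completely.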

Assays:
Assay in all cases: NCI-60 cell line screen, 48 h
COLO 205 colon = system: COLO 205 colon
DU-145 prostate = system: DU-145 prostate
HCT-15 colon = system: HCT-15 colon
KM12 colon = system: KM12 colon
MDA-MB-435 = system: MDA-MB-435
MDA-N = system: MDA-N
NCI-H226 lung = system: NCI-H226 lung
NCI/ADR-RES ovarian = system: NCI/ADR-RES ovarian
RXF 393 renal = system: RXF 393 renal
SK-MEL-2 melanoma = system: SK-MEL-2 melanoma
SK-MEL-28 melanoma = system: SK-MEL-28 melanoma
SK-OV-3 ovarian = system: SK-OV-3 ovarian
SN12C renal = system: SN12C renal
TK-10 renal = system: TK-10 renal
U251 CNS = system: U251 CNS
UACC-257 melanoma = system: UACC-257 melanoma
UO-31 renal = system: UO-31 renal
ACHN renal = system: ACHN renal
SF-268 CNS = system: SF-268 CNS
SNB-19 CNS = system: SNB-19 CNS

Which results are given for `C[C@@H]1CC[C@H]2[C@H]1[C@H]1[C@@H](CC[C@]2(C)N=C=S)C1(C)C`?
TGI (COLO 205 colon): 33.3 µM; TGI (DU-145 prostate): 49.6 µM; TGI (HCT-15 colon): 64.6 µM; TGI (KM12 colon): 40 µM; TGI (MDA-MB-435): 96.6 µM; TGI (MDA-N): 23.4 µM; TGI (NCI-H226 lung): 38.8 µM; TGI (NCI/ADR-RES ovarian): 43.9 µM; TGI (RXF 393 renal): 30.5 µM; TGI (SK-MEL-2 melanoma): 43.9 µM; TGI (SK-MEL-28 melanoma): 49.7 µM; TGI (SK-OV-3 ovarian): > 100 µM; TGI (SN12C renal): 44.7 µM; TGI (TK-10 renal): > 100 µM; TGI (U251 CNS): 30.5 µM; TGI (UACC-257 melanoma): 67.4 µM; TGI (UO-31 renal): > 100 µM

Which results are given for `COc1ccc2oc(=N)c(C(=O)Nc3ccccc3)cc2c1`?
TGI (ACHN renal): > 100 µM; TGI (COLO 205 colon): > 100 µM; TGI (DU-145 prostate): > 100 µM; TGI (HCT-15 colon): > 100 µM; TGI (KM12 colon): > 100 µM; TGI (MDA-MB-435): 32.3 µM; TGI (MDA-N): 48.4 µM; TGI (NCI-H226 lung): > 100 µM; TGI (NCI/ADR-RES ovarian): 44 µM; TGI (RXF 393 renal): 42.3 µM; TGI (SF-268 CNS): 53.9 µM; TGI (SK-MEL-2 melanoma): 37.4 µM; TGI (SK-MEL-28 melanoma): > 100 µM; TGI (SK-OV-3 ovarian): 39.7 µM; TGI (SN12C renal): > 100 µM; TGI (SNB-19 CNS): > 100 µM; TGI (TK-10 renal): > 100 µM; TGI (U251 CNS): 55.1 µM; TGI (UACC-257 melanoma): > 100 µM; TGI (UO-31 renal): > 100 µM

Which TGI (ACHN renal) does the source give for `COc1ccc(N2C(=O)C3c4[nH]c5cc(C)ccc5c4C4CCC(C(C)(C)C)CC4C3C2=O)cc1` (stereo unspecified) here?
The TGI was > 10 µM.

And the TGI (COLO 205 colon)?
The TGI was > 10 µM.

What about the TGI (DU-145 prostate) of the same molecule?
Its TGI is > 10 µM.

What about the TGI (HCT-15 colon) of the same molecule?
Its TGI is > 10 µM.

What about the TGI (KM12 colon) of the same molecule?
Its TGI is > 10 µM.

What about the TGI (MDA-MB-435) of the same molecule?
Its TGI is > 10 µM.

And the TGI (MDA-N)?
Its TGI is > 10 µM.

What about the TGI (NCI-H226 lung) of the same molecule?
Its TGI is > 10 µM.

And the TGI (NCI/ADR-RES ovarian)?
Its TGI is > 10 µM.

And the TGI (RXF 393 renal)?
Its TGI is > 10 µM.

What about the TGI (SF-268 CNS) of the same molecule?
The TGI was > 10 µM.

And the TGI (SK-MEL-2 melanoma)?
Its TGI is > 10 µM.

What about the TGI (SK-MEL-28 melanoma) of the same molecule?
The TGI was > 10 µM.

What about the TGI (SK-OV-3 ovarian) of the same molecule?
The TGI was > 10 µM.

And the TGI (SN12C renal)?
The TGI was > 10 µM.

What about the TGI (SNB-19 CNS) of the same molecule?
The TGI was > 10 µM.

And the TGI (TK-10 renal)?
Its TGI is > 10 µM.

And the TGI (U251 CNS)?
Its TGI is > 10 µM.

What about the TGI (UO-31 renal) of the same molecule?
Its TGI is > 10 µM.

With `COC1OC2COC(c3ccccc3)OC2C(O)C1OC(=S)c1ccccc1` (stereo unspecified) as the molecule, how does the TGI (ACHN renal) read?
The TGI was 67 µM.

And the TGI (COLO 205 colon)?
The TGI was 33 µM.

And the TGI (DU-145 prostate)?
The TGI was > 100 µM.

And the TGI (HCT-15 colon)?
The TGI was > 100 µM.

What about the TGI (MDA-MB-435) of the same molecule?
The TGI was 4.37 µM.

What about the TGI (MDA-N) of the same molecule?
The TGI was 80.9 µM.

What about the TGI (NCI-H226 lung) of the same molecule?
Its TGI is > 100 µM.

And the TGI (NCI/ADR-RES ovarian)?
The TGI was > 100 µM.

And the TGI (RXF 393 renal)?
The TGI was > 100 µM.

What about the TGI (SF-268 CNS) of the same molecule?
Its TGI is > 100 µM.

What about the TGI (SK-MEL-2 melanoma) of the same molecule?
Its TGI is > 100 µM.

What about the TGI (SK-MEL-28 melanoma) of the same molecule?
The TGI was > 100 µM.

And the TGI (SK-OV-3 ovarian)?
Its TGI is > 100 µM.

And the TGI (SN12C renal)?
Its TGI is 48.4 µM.

And the TGI (SNB-19 CNS)?
The TGI was > 100 µM.

And the TGI (TK-10 renal)?
Its TGI is > 100 µM.

And the TGI (U251 CNS)?
Its TGI is 12.9 µM.

And the TGI (UACC-257 melanoma)?
Its TGI is > 100 µM.

What about the TGI (UO-31 renal) of the same molecule?
The TGI was > 100 µM.

Which TGI (ACHN renal) does the source give for `O=C1N(Cc2ccccc2)C2CSCC2N1Cc1ccccc1` (stereo unspecified) here?
The TGI was > 100 µM.

And the TGI (COLO 205 colon)?
The TGI was 32.8 µM.

And the TGI (DU-145 prostate)?
Its TGI is > 100 µM.

What about the TGI (KM12 colon) of the same molecule?
Its TGI is > 100 µM.

What about the TGI (MDA-MB-435) of the same molecule?
Its TGI is 51.5 µM.

What about the TGI (MDA-N) of the same molecule?
Its TGI is 80 µM.

What about the TGI (NCI-H226 lung) of the same molecule?
Its TGI is 64.6 µM.

And the TGI (NCI/ADR-RES ovarian)?
Its TGI is 69.4 µM.

And the TGI (RXF 393 renal)?
The TGI was 69.4 µM.

And the TGI (SF-268 CNS)?
Its TGI is > 100 µM.

And the TGI (SK-MEL-2 melanoma)?
The TGI was 46.4 µM.

And the TGI (SK-MEL-28 melanoma)?
The TGI was > 100 µM.

What about the TGI (SK-OV-3 ovarian) of the same molecule?
Its TGI is > 100 µM.

And the TGI (SN12C renal)?
Its TGI is > 100 µM.

And the TGI (SNB-19 CNS)?
The TGI was > 100 µM.

And the TGI (TK-10 renal)?
The TGI was 85.9 µM.

And the TGI (U251 CNS)?
The TGI was > 100 µM.

What about the TGI (UACC-257 melanoma) of the same molecule?
Its TGI is 69.3 µM.

And the TGI (UO-31 renal)?
The TGI was 93.5 µM.

How did the TGI (ACHN renal) turn out when `C/C1=C\[C@H](C)C[C@H](C)OC(=O)[C@H](C)NC(=O)[C@@H](Cc2ccc(O)c(Br)c2)N(C)C(=O)[C@H](C)NC(=O)[C@@H](C)C1` was run?
The TGI was 1.04 µM.

What about the TGI (COLO 205 colon) of the same molecule?
Its TGI is > 25 µM.

And the TGI (DU-145 prostate)?
The TGI was > 25 µM.

And the TGI (HCT-15 colon)?
The TGI was > 25 µM.

What about the TGI (KM12 colon) of the same molecule?
Its TGI is > 25 µM.

What about the TGI (MDA-MB-435) of the same molecule?
The TGI was > 25 µM.

And the TGI (MDA-N)?
The TGI was > 25 µM.

What about the TGI (NCI-H226 lung) of the same molecule?
Its TGI is 0.787 µM.

And the TGI (NCI/ADR-RES ovarian)?
Its TGI is > 19.8 µM.

And the TGI (RXF 393 renal)?
Its TGI is 0.858 µM.

And the TGI (SF-268 CNS)?
Its TGI is 1.57 µM.

What about the TGI (SK-MEL-2 melanoma) of the same molecule?
The TGI was 9.34 µM.

And the TGI (SK-MEL-28 melanoma)?
The TGI was > 10.6 µM.

What about the TGI (SK-OV-3 ovarian) of the same molecule?
The TGI was 2.04 µM.

What about the TGI (SN12C renal) of the same molecule?
The TGI was > 25 µM.

What about the TGI (SNB-19 CNS) of the same molecule?
The TGI was 9.32 µM.

What about the TGI (TK-10 renal) of the same molecule?
The TGI was 0.269 µM.

What about the TGI (U251 CNS) of the same molecule?
Its TGI is > 7.76 µM.

What about the TGI (UACC-257 melanoma) of the same molecule?
Its TGI is 14.8 µM.

And the TGI (UO-31 renal)?
Its TGI is 0.152 µM.

What does the source list for `OC(C#CCN1CCCC1)(c1ccccc1)c1ccccc1Cl` (stereo unspecified)?
TGI (ACHN renal): 71.3 µM; TGI (COLO 205 colon): 25 µM; TGI (DU-145 prostate): > 100 µM; TGI (HCT-15 colon): > 100 µM; TGI (KM12 colon): > 100 µM; TGI (MDA-MB-435): 51.5 µM; TGI (MDA-N): 50.9 µM; TGI (NCI-H226 lung): > 100 µM; TGI (NCI/ADR-RES ovarian): 94.8 µM; TGI (RXF 393 renal): > 100 µM; TGI (SF-268 CNS): > 100 µM; TGI (SK-MEL-2 melanoma): 61.5 µM; TGI (SK-MEL-28 melanoma): 32.2 µM; TGI (SK-OV-3 ovarian): > 100 µM; TGI (SN12C renal): > 100 µM; TGI (TK-10 renal): > 100 µM; TGI (U251 CNS): 35.2 µM; TGI (UACC-257 melanoma): 40.3 µM; TGI (UO-31 renal): > 100 µM

What does the source list for `CC1(C)CCc2c(ccc(C(=O)/C=C/c3ccc(O)cc3)c2O)O1`?
TGI (ACHN renal): 20.5 µM; TGI (COLO 205 colon): 20.7 µM; TGI (DU-145 prostate): 18.6 µM; TGI (HCT-15 colon): 20.5 µM; TGI (MDA-MB-435): 19.9 µM; TGI (NCI-H226 lung): 22.3 µM; TGI (NCI/ADR-RES ovarian): 21.6 µM; TGI (RXF 393 renal): 20.4 µM; TGI (SF-268 CNS): 23.2 µM; TGI (SK-MEL-2 melanoma): 23.5 µM; TGI (SK-MEL-28 melanoma): 17 µM; TGI (SK-OV-3 ovarian): 74.6 µM; TGI (SN12C renal): 20.7 µM; TGI (SNB-19 CNS): 25.8 µM; TGI (TK-10 renal): 20 µM; TGI (U251 CNS): 20.1 µM; TGI (UACC-257 melanoma): 23.4 µM; TGI (UO-31 renal): 25.5 µM
